Data set [1] relates to LN-229 glioblastoma cell line. As to the kind of experiment: Inhibition growth assay, Trypan blue exclusion. The format is cell-based, human. The note with it: Homo sapiens, LN-229, 48 h, LN-229, 48 h of incubation; mean ± SD of five independent experiments in duplicate. The source says:
On this basis, we investigated the antiproliferative effect of compounds 1–7 on LN-229, a human glioblastoma cell line. Compound 1 and the well-known antitumor drug doxorubicin were taken as references. […] The data in Table 3 support the lack of cytotoxicity of compound 1.
The LN-229 (human glioblastoma) was purchased from the American Type Culture Collection (ATCC) and cultured in DMEM (D2902, Sigma Chemical Co., St. Louis, MO, USA) supplemented with 3.5 g/L of glucose and 5% heat-inactivated fetal calf serum (FCS) (F7524, Sigma Chemical Co.), respectively. A total of 100 U/mL of penicillin, 100 μg/mL of streptomycin, and 0.25 μg/mL of amphotericin B (Sigma Chemical Co.) were added to the medium. Cells were cultured at 37 °C in a humidified atmosphere incubator containing 5% carbon dioxide in air.
Cells (3–6 × 10^4/well) were seeded into a 24-well cell culture plate; after 24 h, different concentrations of the test compounds or reference drug were added. After 48 h of incubation in standard conditions, the cell viability was determined by using a Trypan blue exclusion assay. Briefly, cells were detached by using a […] and 0.3 mM EDTA solution in PBS and stained with 0.1% Trypan blue solution in PBS. Unstained viable cells were immediately counted in a Burker chamber. The percentage of viable cells was calculated with respect to the untreated control culture. […] The goodness of the fit was expressed by the r^2 coefficient, and the best fit report included the analysis of variance corrected for the mean of the observations with the p values (p < 0.005 for all the tested compounds). Data are the means ± SD of at least five independent experiments in duplicate.

Another data set concerns MAO. As to the kind of experiment: Test of compounds as potential MAO substrates, Amplex Red/horseradish peroxidase coupled method. The format is biochemical, human. The note with it: up to a 50 μM concentration. As for the experimental part:
Before evaluating the potential MAO inhibitory capability of derivatives 2–7, kinetic experiments were performed to assay their behaviors as potential MAO substrates by using the Amplex Red/horseradish peroxidase coupled method, which detects the hydrogen peroxide produced by the amine oxidase enzyme activity in the presence of an amine substrate. […] Thus, for the subsequent inhibition studies, an assay method that used kynuramine as the MAO substrate and detected the production of 4-hydroxyquinoline (formed from the aldehyde reaction product) was applied.
Except for compound 4, no significant interference of the other polyamine analogs with the preliminary calibration curves was observed. […] The evaluations of the effects of compounds 1–7 on the MAO activity were performed by using a kynuramine assay due to the interferences of compound 4 with the Amplex Red method.

Another data set deals with T1, human recombinant MAO A (Homo sapiens, UniProt P21397).
T1 sequence (P21397 1-527): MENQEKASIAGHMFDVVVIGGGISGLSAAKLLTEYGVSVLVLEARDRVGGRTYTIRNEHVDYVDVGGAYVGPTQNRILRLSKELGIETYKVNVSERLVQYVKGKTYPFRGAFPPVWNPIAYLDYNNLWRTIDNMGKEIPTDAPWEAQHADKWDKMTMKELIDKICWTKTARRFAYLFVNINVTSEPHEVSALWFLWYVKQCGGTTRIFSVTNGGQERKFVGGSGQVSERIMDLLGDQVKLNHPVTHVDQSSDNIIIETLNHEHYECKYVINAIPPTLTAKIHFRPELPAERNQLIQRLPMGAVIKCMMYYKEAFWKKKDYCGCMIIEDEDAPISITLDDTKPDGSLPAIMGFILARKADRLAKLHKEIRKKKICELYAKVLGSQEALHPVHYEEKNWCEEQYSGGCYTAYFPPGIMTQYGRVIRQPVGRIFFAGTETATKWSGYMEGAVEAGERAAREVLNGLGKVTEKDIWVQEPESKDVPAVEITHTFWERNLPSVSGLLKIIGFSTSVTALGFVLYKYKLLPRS
The experiment in a line: MAO A inhibition, kynuramine assay (4-hydroxyquinoline fluorescence). The note with it: MAO A Ki, human recombinant MAO A; kynuramine 10 μM; from slope of Vo/VI vs compound concentration (1.25–40 μM); mean ± S.D.

In data set [2] the target is T2, human recombinant MAO B (Homo sapiens, UniProt P27338).
T2 sequence (P27338 1-520): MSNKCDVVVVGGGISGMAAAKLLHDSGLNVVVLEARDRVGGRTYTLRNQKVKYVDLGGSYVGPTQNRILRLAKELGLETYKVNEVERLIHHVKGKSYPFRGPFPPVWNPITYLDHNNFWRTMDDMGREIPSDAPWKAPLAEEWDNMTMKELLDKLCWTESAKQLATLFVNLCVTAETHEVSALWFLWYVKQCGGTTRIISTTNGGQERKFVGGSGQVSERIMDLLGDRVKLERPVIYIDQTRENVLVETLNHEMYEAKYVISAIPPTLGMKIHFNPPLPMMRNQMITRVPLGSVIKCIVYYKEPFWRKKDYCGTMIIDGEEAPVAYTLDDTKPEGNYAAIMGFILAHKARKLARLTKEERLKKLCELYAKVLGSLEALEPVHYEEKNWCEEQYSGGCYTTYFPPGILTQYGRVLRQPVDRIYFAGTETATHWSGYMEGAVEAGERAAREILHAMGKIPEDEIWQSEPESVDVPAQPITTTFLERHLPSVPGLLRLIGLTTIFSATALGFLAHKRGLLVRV
As to the kind of experiment: MAO B inhibition, kynuramine assay (4-hydroxyquinoline fluorescence). The note with it: MAO B Ki, human recombinant MAO B; kynuramine 10 μM; from slope of Vo/VI vs compound concentration (1.25–40 μM); mean ± S.D.

Data set [3] addresses T3, murine SMOX (Mus musculus, UniProt Q99K82). As to the kind of experiment: SMOX amine oxidase activity, Amplex Red/horseradish peroxidase assay, spermine as substrate. The note with it: up to a 50 μM concentration.
Data set [4] has as its target T4, human VAP-1 (Homo sapiens, UniProt Q16853).
T4 sequence (Q16853 1-763): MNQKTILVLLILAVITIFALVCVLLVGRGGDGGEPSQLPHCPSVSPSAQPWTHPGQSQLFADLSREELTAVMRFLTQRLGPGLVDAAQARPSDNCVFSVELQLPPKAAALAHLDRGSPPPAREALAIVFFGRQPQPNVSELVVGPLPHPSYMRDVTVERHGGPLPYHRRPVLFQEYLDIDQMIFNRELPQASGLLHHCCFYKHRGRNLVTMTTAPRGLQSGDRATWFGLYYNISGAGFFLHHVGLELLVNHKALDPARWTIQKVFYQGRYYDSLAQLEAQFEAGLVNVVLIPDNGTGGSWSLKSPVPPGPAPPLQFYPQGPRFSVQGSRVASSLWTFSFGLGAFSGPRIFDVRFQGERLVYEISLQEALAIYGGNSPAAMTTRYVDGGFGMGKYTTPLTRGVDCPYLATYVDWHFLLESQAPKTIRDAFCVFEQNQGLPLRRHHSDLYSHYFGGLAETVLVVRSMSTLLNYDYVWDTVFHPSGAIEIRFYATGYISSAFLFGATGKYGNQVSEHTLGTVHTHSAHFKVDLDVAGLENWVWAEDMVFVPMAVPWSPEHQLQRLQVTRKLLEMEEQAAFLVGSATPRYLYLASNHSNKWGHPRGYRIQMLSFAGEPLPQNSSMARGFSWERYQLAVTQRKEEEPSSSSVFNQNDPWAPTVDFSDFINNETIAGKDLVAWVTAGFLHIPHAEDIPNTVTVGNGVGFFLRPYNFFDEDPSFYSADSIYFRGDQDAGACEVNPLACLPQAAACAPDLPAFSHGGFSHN
The experiment in a line: VAP-1 amine oxidase activity, Amplex Red/horseradish peroxidase assay, benzylamine as substrate. Conditions: up to a 50 μM concentration.

For data set [5], the target named is T4, human VAP-1. Details: Biothie Therapies Cor; (Turku, Finland), gift; method as in PMID 21858471, PMID 30829081. The note with it: previous studies ref 35, 40; cited from earlier work.
Data set [6] deals with T3, murine SMOX. Set-up: made in house; host or cells: E. coli BL21 DE3. Conditions: previous studies ref 35, 40; cited from earlier work.
The target of data set [7] is T2, human recombinant MAO B. Set-up: purchased Merk s.r.l; (Italy); host or cells: baculovirus-infected BT1 cells; method as in PMID 21858471. The note with it: previous study ref 35; cited from earlier work.
Substrate in data set [8]: NCCC(=O)c1ccccc1N
The experiment in a line: purified protein, by the assay type. Conditions: other: substrate, human recombinant MAO A; pH 7.4; 37.0 °C.

Here are results for 3 molecules from paper PMC10490032, “From Monoamine Oxidase Inhibition to Antiproliferative Activity: New Biological Perspectives for Polyamine Analogs” (Molecules, 2023).

Entries after “also recorded” stand apart in the source; their conditions may differ.

T3 sequence (Q99K82 whole entry): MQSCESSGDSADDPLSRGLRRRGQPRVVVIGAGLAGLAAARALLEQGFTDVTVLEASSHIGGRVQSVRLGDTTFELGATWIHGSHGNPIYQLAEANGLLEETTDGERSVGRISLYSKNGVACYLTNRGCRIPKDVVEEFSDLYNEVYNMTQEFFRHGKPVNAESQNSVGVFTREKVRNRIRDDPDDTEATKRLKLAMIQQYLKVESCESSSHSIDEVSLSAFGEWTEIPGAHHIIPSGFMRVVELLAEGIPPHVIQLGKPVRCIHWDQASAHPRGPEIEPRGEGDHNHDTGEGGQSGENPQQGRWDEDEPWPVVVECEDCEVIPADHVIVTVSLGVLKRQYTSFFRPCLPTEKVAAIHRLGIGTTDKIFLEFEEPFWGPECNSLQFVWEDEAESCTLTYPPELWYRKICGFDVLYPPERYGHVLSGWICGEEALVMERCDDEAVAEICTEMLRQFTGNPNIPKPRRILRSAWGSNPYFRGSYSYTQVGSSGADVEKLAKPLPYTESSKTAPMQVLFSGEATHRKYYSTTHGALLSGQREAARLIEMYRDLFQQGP

One may read the GI50 as the concentration at which growth is held to half of that of the control. As usually defined, the Ki is the dissociation constant of the complex between target and ligand, obtained from inhibition or displacement. Take `COc1ccccc1CNCCCCCC(=O)N1CCC(CCC2CCN(C(=O)CCCCCNCc3ccccc3OC)CC2)CC1` [Compound 3]: halving of growth in data set [1] (GI50) required 2.2 ± 0.9 µM. The “Behaviour as MAO substrate” value with MAO is “did not act as substrates”. In addition, the figures for the Ki on human recombinant MAO A and on human recombinant MAO B [2] were 70 ± 7 µM and 19 ± 2 µM, respectively. Also, the “Behaviour as SMOX substrate” value on murine SMOX [3] is recorded as “not substrates”. For the same molecule, the “Behaviour as VAP-1 substrate” value on human VAP-1 [4] is recorded as “not substrates”.
`COc1ccccc1CNCCCCCCN1CCC(CCC2CCN(CCCCCCNCc3ccccc3OC)CC2)CC1` [Compound 2] returned a concentration for 50% growth inhibition (GI50) in data set [1] of 4.6 ± 1.1 µM. Moreover, the “Behaviour as MAO substrate” value with MAO was “did not act as substrates”. The “Inhibition of VAP-1” value on human VAP-1 [5] was “poor inhibitor”. Further, the “Inhibition of SMOX” value on murine SMOX [6] was “poor inhibitor”. Further, the Ki at human recombinant MAO A amounted to 247 ± 42 µM; on human recombinant MAO B [2], 330 ± 30 µM. In addition, the “Mode of inhibition of MAO B” value on human recombinant MAO B [7] is given as “mainly competitive/mixed; also recorded: reversible mixed-type”.

B1: human recombinant MAO A (Homo sapiens) (protein)
chain: T1 sequence (P21397 1-527)
A word on the Km: it is the concentration of substrate that gives half-maximal velocity. On to B1, for which the Km in [8] is 32 ± 11 µM.
